Earlier results, collected in patent US10874605B2, “Extended release biodegradable ocular implants” (Allergan, Inc., priority 2004, dated 2020).

Conditions: efficacy in vivo

In the case of `C[C@]12CCC(=O)C=C1CC[C@@H]1[C@@H]2[C@@H](O)C[C@@]2(C)[C@H]1CC[C@]2(O)C(=O)CO` [hydrocortisone], the “dose equivalent to a 1 mg dose of dexamethasone” value is listed as 25 mg and the “potency relative to dexamethasone” value is listed as “approximately twenty five fold less potent than dexamethasone”.
